Measured values as given in patent publication US20230364079A1, “COMPOUND AS BRAIN-PERMEABLE BTK OR HER2 INHIBITOR, PREPARATION METHOD THEREFOR, AND USE THEREOF” (CHENGDU HYPERWAY PHARMACEUTICALS CO., LTD., priority 2020, published 2023).

How the values were obtained:
[1] = molecular target: BTK wild-type kinase (Homo sapiens (Human), UniProt Q06187); assay: BTK kinase activity inhibition test in vitro (Caliper EZ Reader); format: biochemical
Experimental: In the tests on the activity of inhibiting BTK and HER2 kinase in vitro in the examples of the present disclosure, powder of the compound was dissolved in 100% DMSO to prepare a 10 mM stock solution and stored at-20° C. in the dark. […] In addition, the compounds were subjected to experiments such as liver microsome metabolic stability, rat PK, rat brain penetration rate, and drug efficacy model in the examples of the present disclosure.
Compound powders were dissolved in 100% DMSO to make 10 mM stock solutions, which were stored at -20° C. in the dark.
2: Kinase Reaction Process
(1) Preparation of 1 × Kinase buffer.
(5) After centrifugation at 1000 rpm for 30 seconds, the reaction plate was shaken to mix well and incubated at room temperature for 10 min.
(6) A 5/3-fold final concentration of a mixed solution of ATP and Kinase substrate 2 was prepared with 1 × Kinase buffer.
(7) 15 µL of the mixed solution of ATP and substrate with 5/3-fold final concentration was added to start the reaction.
(8) The 384-well plate was centrifuged at 1000 rpm for 30 seconds, shaken to mix well, and incubated at room temperature for 10 min.
(9) 30 µL of a stop solution was added to stop the kinase reaction, and after centrifugation at 1000 rpm for 30 seconds, the plate was shaken to mix well;
(10) The conversion rate was read with Caliper EZ Reader.
where Conversion%_sample indicates the conversion rate reading of the sample; Conversion%_min is the average reading of the negative control wells, representing the conversion rate reading of the wells without enzyme activity; Conversion%_max is the average reading of the ratio of the positive control wells, representing the conversion rate reading of the wells without compound inhibition.
Dose-Response Curve Fitting
With the log value of the concentration as the X-axis, and the percentage inhibition rate as the Y-axis, the dose-effect curve was fitted using the log(inhibitor) vs. response-Variable slope of the analysis software GraphPad Prism 5, so as to determine the IC50 value of each compound on the enzyme activity.
The calculation formula was: […]

[2] = Pharmacokinetic test, oral, SD rats; format: in vivo; settings: oral 10 mg/kg, plasma; for AUC(0-inf) / Cmax / half-life: rat; for Cmax: read-out: Cmax; for half-life: read-out: T½ (converted)
Experimental: Each test compound was administered orally (10 mg/kg, 3 rats in each group) to SD rats for pharmacokinetic study. […] Animals were fasted overnight before oral administration, and fed again after 4 h of administration. […] At each collection time point, 3 whole blood samples were collected at a the collection volume of about 0.2-0.3 mL. […] The collected plasma was stored at -20° C. before analysis. 20 µL of plasma sample was added into a 1.6 mL 96-well deep-well plate, added with 200 µL of working internal standard solution (the same volume of vehicle was added to the blank instead of internal standard), vortexed for 1 min, and centrifuged at 5800 rpm for 10 min. 100 µL of the supernatant was added to a 96-well injection plate for LC-MS/MS analysis.

BTK wild-type kinase, sequence (Q06187 whole entry): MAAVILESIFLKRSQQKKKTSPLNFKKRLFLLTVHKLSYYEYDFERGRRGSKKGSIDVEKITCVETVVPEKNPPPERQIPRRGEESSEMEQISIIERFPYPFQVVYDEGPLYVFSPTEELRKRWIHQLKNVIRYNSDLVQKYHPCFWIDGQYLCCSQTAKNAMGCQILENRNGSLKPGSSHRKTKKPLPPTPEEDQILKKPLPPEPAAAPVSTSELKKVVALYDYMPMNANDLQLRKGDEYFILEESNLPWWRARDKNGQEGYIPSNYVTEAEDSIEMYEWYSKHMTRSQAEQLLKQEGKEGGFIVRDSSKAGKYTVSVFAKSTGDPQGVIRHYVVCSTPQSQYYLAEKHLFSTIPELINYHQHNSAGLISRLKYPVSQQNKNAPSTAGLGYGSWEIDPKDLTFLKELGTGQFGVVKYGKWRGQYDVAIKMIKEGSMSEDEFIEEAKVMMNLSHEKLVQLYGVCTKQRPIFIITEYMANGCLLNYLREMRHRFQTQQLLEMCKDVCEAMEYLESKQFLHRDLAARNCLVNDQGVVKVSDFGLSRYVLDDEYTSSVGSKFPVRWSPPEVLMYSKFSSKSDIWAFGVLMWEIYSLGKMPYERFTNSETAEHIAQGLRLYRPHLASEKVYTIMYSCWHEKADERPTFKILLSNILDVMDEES

SMILES | IC50 [1] | further results
COc1ccccc1C(=O)NCc1ccc(-c2nn(C3CCC(CO)OC3)c3ncnc(N)c23)cc1 (single isomer, unassigned) [Compound 60-B] | 20 to 100 nM | Cl [2]: 188.82 mL/min/kg; AUC(0-inf) [2]: 889 ng·h/mL; Cmax [2]: 946 ng/mL; half-life [2]: 2.89 h
Nc1nccn2c(C3CCC(CO)OC3)nc(-c3ccc(C(=O)Nc4nccc(C(F)(F)F)c4F)cc3)c12 (stereo not drawn) [Compound 86] | 100 to 1000 nM | –
Nc1nccn2c(C3CCC(CO)OC3)nc(-c3ccc(C(=O)Nc4ncccc4F)cc3)c12 (stereo not drawn) [Compound 87] | 100 to 1000 nM | –
COc1ccccc1Oc1ccc(-c2nc(C3CCC(CO)OC3)n3ccnc(N)c23)cc1 (stereo not drawn) [Compound 88] | 20 to 100 nM | –
COc1cccc(Oc2ccc(-c3nc(C4CCC(CO)OC4)n4ccncc34)cc2)c1F (stereo not drawn) [Compound 90] | 20 to 100 nM | –
COc1ccc(C#N)c(Oc2ccc(-c3nc(C4CCC(CO)OC4)n4ccnc(N)c34)cc2)c1 (stereo not drawn) [Compound 96] | 20 to 100 nM | –
Cc1cccnc1NC(=O)c1ccc(-c2nc(C3CCC(CO)OC3)n3ccnc(N)c23)cc1 (stereo not drawn) [Compound 97] | 100 to 1000 nM | –
NC(=O)c1ccccc1C(=O)c1ccc(-c2nc(C3CCC(CO)OC3)n3ccnc(N)c23)cc1 (stereo not drawn) [Compound 99] | > 1000 nM | –
Nc1nccn2c(C3CCC(CO)OC3)nc(-c3ccc(C(=O)c4ccc(Cl)cc4)cc3)c12 (stereo not drawn) [Compound 102] | 20 to 100 nM | –
CNC(=O)c1cc(Oc2ccc(-c3nc(C4CCC(CO)OC4)n4ccnc(N)c34)cc2)ccn1 (stereo not drawn) [Compound 107] | 100 to 1000 nM | –
COc1cccc(C(F)(F)c2ccc(-c3nc(C4CCC(CO)OC4)n4ccnc(N)c34)cc2)c1C#N (stereo not drawn) [Compound 123] | 20 to 100 nM | –
CC(C)(c1ccccc1)c1ccc(-c2nc(C3CCC(CO)OC3)n3ccnc(N)c23)cc1 (stereo not drawn) [Compound 131] | > 1000 nM | –
COc1cccc(C(F)(F)c2ccc(-c3nc(C45CCC(CO)(CC4)OC5)n4ccnc(N)c34)cc2)c1 [Compound 132] | 20 to 100 nM | –
Nc1nccn2c(C3CCC(CO)OC3)nc(-c3ccc(C(=O)Nc4ccccc4F)cc3)c12 (stereo not drawn) [Compound 133] | 100 to 1000 nM | –
Nc1nccn2c(C34COC(CO)(C3)C4)nc(-c3ccc(C(F)(F)c4ccccc4)cc3)c12 [Compound 138] | 20 to 100 nM | –
Nc1nccn2c(C34CCC(CO)(CC3)OC4)nc(-c3ccc(C(F)(F)c4ccc(F)c(Cl)c4)cc3)c12 [Compound 140] | 100 to 1000 nM | –
Nc1nccn2c(C34CCC(CO)(CC3)OC4)nc(-c3ccc(C(F)(F)c4ccc(F)cc4)cc3)c12 [Compound 141] | 100 to 1000 nM | –
Nc1nccn2c(C34CCC(CO)(CC3)OC4)nc(-c3ccc(C(F)(F)c4cccc(F)c4)cc3)c12 [Compound 142] | 100 to 1000 nM | –
Nc1nccn2c(C34CCC(CO)(CC3)OC4)nc(-c3ccc(C(F)(F)c4cccc(C5CC5)c4)cc3)c12 [Compound 143] | 20 to 100 nM | –
C=CC(=O)N1CCC[C@@H](n2nc(-c3ccc(Oc4ccccc4)cc3)c3c(N)ncnc32)C1 [Ibrutinib, reference compound] | – | AUC(0-inf) [2]: 362 ng·h/mL; Cmax [2]: 222 ng/mL

Continued, in another order:

IC50 [1] | SMILES | further results
< 5 nM | Cc1cccc(Oc2ccc(-c3nc(C45CCC(CO)(CC4)OC5)n4ccnc(N)c34)cc2)c1F [Compound 92] | –
5 to 20 nM | Nc1nccn2c(C34CCC(CO)(CC3)OC4)nc(-c3ccc(Oc4cccc(C(F)(F)F)c4F)cc3)c12 [Compound 93] | –
5 to 20 nM | Nc1nccn2c(C34CCC(CO)(CC3)OC4)nc(-c3ccc(Oc4cccc(Cl)c4F)cc3)c12 [Compound 94] | –
5 to 20 nM | Nc1nccn2c(C34CCC(CO)(CC3)OC4)nc(-c3ccc(Oc4cccc(OC(F)(F)F)c4F)cc3)c12 [Compound 95] | –
< 5 nM | COc1cccc(Oc2ccc(-c3nc(C4CCC(CO)OC4)n4ccnc(N)c34)c(F)c2)c1C#N (stereo not drawn) [Compound 98] | –
< 5 nM | COc1cccc(Oc2ccc(-c3nc(C4CCC(CO)OC4)n4c(Cl)cnc(N)c34)cc2)c1C#N (stereo not drawn) [Compound 100] | –
5 to 20 nM | COc1cccc(Oc2ccc(-c3nc(C4CCC(CO)OC4)n4ccnc(N)c34)cc2)n1 (stereo not drawn) [Compound 104] | –
< 5 nM | Nc1nccn2c(C3CCC(CO)OC3)nc(-c3ccc(C(=O)Nc4cc(C(F)(F)F)ccn4)cc3F)c12 (stereo not drawn) [Compound 105] | –
5 to 20 nM | Nc1ncnc2c1c(-c1ccc(C(=O)Nc3ccccn3)cc1)nn2C1CCC(CO)OC1 (stereo not drawn) [Compound 108] | –
< 5 nM | Nc1ncc(Cl)n2c(C3CCC(CO)OC3)nc(-c3ccc(C(=O)Nc4cc(C(F)(F)F)ccn4)cc3)c12 (stereo not drawn) [Compound 110] | –
5 to 20 nM | COc1cccc(Oc2ccc(-c3nc(C45CCC(CO)(CC4)OC5)n4ccnc(N)c34)cc2)c1C(F)(F)F [Compound 112] | –
5 to 20 nM | Nc1nccn2c(C3CCC(CO)OC3)nc(-c3ccc(C(F)(F)c4ccccc4)cc3F)c12 (stereo not drawn) [Compound 113] | –
5 to 20 nM | Nc1nccn2c(C34CCC(CO)(CC3)OC4)nc(-c3ccc(C(F)(F)c4ccccc4)cc3F)c12 [Compound 114] | –
< 5 nM | COc1cccc(Oc2ccc(-c3nc(C45CCC(CO)(CC4)OC5)n4ccnc(N)c34)c(F)c2)c1C#N [Compound 115] | –
< 5 nM | COc1cccc(Oc2ccc(-c3nc(C45CCC(CO)(CC4)OC5)n4ccnc(N)c34)cc2)c1C#N [Compound 116] | Cl [2]: 84.73 mL/min/kg; AUC(0-inf) [2]: 2010 ng·h/mL; Cmax [2]: 858 ng/mL; half-life [2]: 1.35 h
< 5 nM | Nc1nccn2c(C34CCC(CO)(CC3)OC4)nc(-c3ccc(C(=O)Nc4cc(C(F)(F)F)ccn4)cc3F)c12 [Compound 117] | –
< 5 nM | COc1cccc(Oc2ccc(-c3nc(C4CCC(CO)OC4)n4ccnc(N)c34)cc2)c1C(F)(F)F (stereo not drawn) [Compound 119] | Cl [2]: 75.92 mL/min/kg; AUC(0-inf) [2]: 2250 ng·h/mL; Cmax [2]: 663 ng/mL; half-life [2]: 0.64 h
< 5 nM | COc1cccc(Oc2ccc(-c3nc(C45CCC(CO)(CC4)OC5)n4c(Cl)cnc(N)c34)cc2)c1C#N [Compound 122] | –
5 to 20 nM | COc1cccc(C(F)(F)c2ccc(-c3nc(C4CCC(CO)OC4)n4ccnc(N)c34)cc2)c1F (stereo not drawn) [Compound 126] | –
5 to 20 nM | Nc1nccn2c(C3CCC(CO)OC3)nc(-c3ccc(C(F)(F)c4cccc(F)c4F)cc3)c12 (stereo not drawn) [Compound 127] | –
< 5 nM | Nc1ncc(Cl)n2c(C34CCC(CO)(CC3)OC4)nc(-c3ccc(C(=O)Nc4cc(C(F)(F)F)ccn4)cc3)c12 [Compound 128] | –
5 to 20 nM | COc1cccc(C(F)(F)c2ccc(-c3nc(C45CCC(CO)(CC4)OC5)n4ccnc(N)c34)cc2)c1F [Compound 129] | –
5 to 20 nM | Nc1nccn2c(C34CCC(CO)(CC3)OC4)nc(-c3ccc(C(F)(F)c4cccc(F)c4F)cc3)c12 [Compound 130] | –
5 to 20 nM | COc1cccc(Oc2ccc(-c3nc(C4CCC(CO)OC4)n4c(C)cnc(N)c34)cc2)c1F (stereo not drawn) [Compound 134] | –
5 to 20 nM | N#Cc1ccnc(NC(=O)c2ccc(-c3nc(C45COC(CO)(C4)C5)n4ccnc(N)c34)cc2)c1 [Compound 135] | –
5 to 20 nM | Nc1nccn2c(C34COC(CO)(C3)C4)nc(-c3ccc(C(=O)Nc4cc(C(F)(F)F)ccn4)cc3)c12 [Compound 136] | –
5 to 20 nM | COc1cccc(Oc2ccc(-c3nc(C45COC(CO)(C4)C5)n4ccnc(N)c34)cc2)c1C#N [Compound 137] | –
